Experimental data: PMC6152192, “Novel Methylselenoesters as Antiproliferative Agents” (Molecules : A Journal of Synthetic Chemistry and Natural …, 2017)
“And” between values parts separate entries of the source, which are not always exact repeats. Equal values may be shown once.

Legend:
Format in all cases: cell-based
[1] = test system: 184B5 (non-malignant mammary epithelium); assay: MTT viability assay, 184B5; conditions: 184B5 non-malignant, 72 h, MTT; for CC50: read-out: LC50 (the source's name)
MCF7 cells [2] = assay: Cell cycle analysis (propidium iodide, Apo-Direct kit, flow cytometry); conditions: for concentration from which the increase of cells in G2/M phase was evident: MCF7, 24 h; for effect on cell cycle distribution: MCF7, increasing concentrations 24 h or time-course; for time of significant decrease in the G0/G1 phase / treatment time after which an increase in G2/M phase was found: MCF7, time-course, 15 μM compound 5 or 30 μM compound 15
Method: Cell cycle arrest is the target of many anticancer drugs, as it is the first step to decrease cell proliferation. To gain a better understanding of the mechanism of these compounds, the effect of compounds 5 and 15 on cell cycle distribution was analyzed. MCF7 cells were treated with increasing concentrations of both compounds for 24 h or with 15 μM 5 or 30 μM 15 for different times. The negative control was treated with vehicle, and camptothecin (6 μM) was used as a positive control. Samples were stained with propidium iodide using the Apo-Direct kit (BD Pharmingen, Madrid, Spain) and processed by flow cytometry.
3 × 10^6 or 2 × 10^6 MCF7 cells were seeded in 25 cm^2 flasks for treatments up to 24 h or 48 h, respectively. DMSO (vehicle) or the dissolved compounds were added 24 h after seeding and cells were incubated for different times at 37 °C under 5% CO2. Cell cycle and cell death were analyzed simultaneously with the Apo-Direct kit (BD Pharmingen, Madrid, Spain), following the manufacturer’s protocol. Briefly, cells were fixed in 1% paraformaldehyde for 45 min at 0 °C, washed with PBS and incubated for at least 30 min in 70% ethanol on ice. Cells were then stained both with FITC-dUTP (1 h, 37 °C) and propidium iodide (30 min, room temperature) and analyzed by flow cytometry using a Coulter Epics XL cytometer (Beckman Coulter, Brea, CA, USA).
Figure 4 Compounds 5 and 15 induce cell cycle arrest in G2/M phase in MCF7. MCF7 cells were treated with different concentrations of compound 5, 15 or vehicle (control) for 24 h or for different time periods. Cells were stained with propidium iodide with the Apo-Direct kit and analyzed by flow cytometry. (A) Quantification of cell cycle distribution after 24 h treatment with increasing concentrations of compound 5; (B) Representative experiment of A; (C) Quantification of cell cycle distribution after 24 h treatment with increasing concentrations of compound 15; (D) Representative experiment of C; (E) Cell cycle distribution after treatment with vehicle, 15 μM of compound 5 or 30 μM of compound 15 for different times. Results represent the mean ± SEM of at least three independent experiments performed in duplicate. * p < 0.05, ** p < 0.01.

HTB-54 (lung carcinoma) = assay: MTT viability assay, HTB-54; conditions: HTB-54, 72 h, MTT; for CC50: read-out: LC50 (the source's name)
How it was run: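 Cells (10,000/well; RPMI or, for BEAS-2B, DMEM with 10% FBS; 37 °C, 5% CO2) were treated 72 h with six concentrations from 0.1 to 100 μM, diluted from 0.01 M DMSO stock. MTT was added for 4 h, formazan dissolved in DMSO, absorbance read at 550 nm; GI50, TGI and LC50 derived.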

MCF7 cells [3] = assay: Caspase and autophagy inhibitors assay (Z-VAD-FMK, wortmannin; TUNEL); conditions: MCF7, 50 μM Z-VAD-FMK 1 h pre-incubation, compound 5 25 μM or compound 15 30 μM, 48 h
Method: Se compounds induce different types of cell death, among which apoptosis and autophagy are the most common. To further elucidate the pathway through which compounds 5 and 15 trigger cell death, we used Z-VAD-FMK, a pan-caspase inhibitor and wortmannin, a PI3K inhibitor which blocks autophagy. MCF7 cells were pre-incubated for 1 h with 50 μM of Z-VAD-FMK or 100 nM wortmannin and co-incubated with compound 5 (25 μM), compound 15 (30 μM) or vehicle (control) for 48 h. Treated cells without inhibitors were also included.
2 × 10^6 MCF7 cells were seeded in 25 cm^2 flasks. After 24 h, cells were pre-treated with 50 μM of the pan-caspase inhibitor Z-VAD-FMK (BD Pharmingen) or 100 nM wortmannin (Santa Cruz Biotechnology, Heidelberg, Germany) for 1 h before co-incubating them with 25 μM of compound 5, 30 μM of compound 15 or vehicle (maximum amount of DMSO used in the treatments) for 48 h. Cells were collected and processed with the Apo-Direct kit as described previously.
Figure 6 Cell death induced by compounds 5 and 15 involves the caspases pathway. MCF7 cells were pre-incubated with 50 μM of Z-VAD-FMK or 100 nM wortmannin for 1 h before treating cells with compound 5 (25 μM), compound 15 (30 μM) or vehicle (control) for 48 h. Cells were stained with the Apo-Direct kit (TUNEL assay) and analyzed by flow cytometry. […]

Substance | GI50 [1] [µM] | TGI [1] [µM] | CC50 [1] [µM] | concentration from which the increase of cells in G2/M phase was evident (MCF7 cells [2]) [µM] | effect on cell cycle distribution (MCF7 cells [2]) | time of significant decrease in the G0/G1 phase (MCF7 cells [2]) [h] | treatment time after which an increase in G2/M phase was found (MCF7 cells [2]) [h] | GI50 (HTB-54 (lung carcinoma)) | TGI (HTB-54 (lung carcinoma)) [µM] | CC50 (HTB-54 (lung carcinoma)) [µM] | decrease of cell death in the presence of the pan-caspase inhibitor Z-VAD-FMK (MCF7 cells [3]) [%]
Dimethyl 2,5-furandicarboselenoate [Compound 15] | 3.5 ± 1.1 | 6.4 ± 0.5 | 9.2 ± 0.9 | ≥ 7 | increased the percentage of cells in G2/M phase | 16 | 8 | > 10 µM and 15.6 µM | 46.0 ± 3.0 | 76.3 ± 1.1 | 14
Methyl 3-chlorothiophen-2-carboselenoate [Compound 5] | 3.5 ± 0.4 | 5.9 ± 0.3 | 8.3 ± 0.2 | ≥ 15 | increased the percentage of cells in G2/M phase | 8 | 8 | 4.9 ± 0.2 µM |  | 61.5 ± 3.2 | 36
